Data from patent US20230082130A1, “USE OF C[…] TO TREAT OR PREVENT FUNGAL GROWTH OF C. ALBICANS” (Demetrix, Inc., priority 2021, published 2023).
Converted amounts (≈) assume the structure as drawn. Read-outs that look alike come from different tables or passages of the source.

System: C. albicans
Test: minimum inhibitory concentration (MIC) assay against C. albicans
Type: cell-based, Candida albicans
Settings: growth inhibition of C. albicans, assay performed by Charles River Laboratories
Method: To determine the ability of the cannabinoid compounds described herein to reduce, inhibit, or eliminate, C. albicans a minimum inhibitory concentration (“MIC”) assay was performed. […] The assay was performed by Charles River Laboratories International (Wilmington, Mass.) in accordance with industry standards.

[1] = Candida albicans, read-out: MIC

Compound | MIC [1] [µg/mL] | MIC [µg/mL] | MIC (Candida albicans) [µg/mL]
CCCCCc1cc(O)c2c(c1)OC(C)(CCC=C(C)C)C=C2 (centres unmarked) [CBC, cannabichromene] | > 200 | >200 | 
CCCCCc1cc2c(c(O)c1C(=O)O)C=CC(C)(CCC=C(C)C)O2 (centres unmarked) [CBCA, cannabichromenic acid] |  | >200 | 
C=C(C)[C@@H]1CCC(C)=C[C@H]1c1c(O)cc(CCCCC)cc1O [CBD, cannabidol] |  | 200 (≈ 636 µM) | 
C=C(C)[C@@H]1CCC(C)=C[C@H]1c1c(O)cc(CCCCC)c(C(=O)O)c1O [CBDA, cannabidiolic acid] | > 200 | >200 | 
C=C(C)[C@@H]1CCC(C)=C[C@H]1c1c(O)cc(CCC)cc1O [CBDV, cannabidivarin] |  |  | < 25
C=C(C)[C@@H]1CCC(C)=C[C@H]1c1c(O)cc(CCC)c(C(=O)O)c1O [CBDVA, cannabidivarinic acid] |  | >200 | 
CCCCCc1cc(O)c(C/C=C(\C)CCC=C(C)C)c(O)c1 [CBG, cannabigerol] | > 200 | >200 | 
CCCCc1cc(O)c(CC=C(C)CCC=C(C)C)c(O)c1 [CBG-C4, cannabigerol butyl] |  | 200 (≈ 661 µM) | 
CCCCCc1cc(O)c(C/C=C(\C)CCC=C(C)C)c(O)c1C(=O)O [CBGA, cannabigerolic acid] | > 200 | >200 | 
CCCCc1cc(O)c(C/C=C(\C)CCC=C(C)C)c(O)c1C(=O)O [CBGA-C4, cannabigerolic acid butyl] |  | >200 | 
CCCc1cc(O)c(C/C=C(\C)CCC=C(C)C)c(O)c1 [CBGV, cannabigerivarin] |  | 50 (≈ 173 µM) | 
CCCc1cc(O)c(C/C=C(\C)CCC=C(C)C)c(O)c1C(=O)O [CBGVA, cannabigerovarinic acid] |  | >200 | 
CCCCCc1cc(O)c2c(c1)OC1(C)CCC3C1C2C3(C)C (centres unmarked) [CBL, cannabicyclol] | > 200 | >200 | 
CCCCCc1cc2c(c(O)c1C(=O)O)C1C3C(CCC3(C)O2)C1(C)C (centres unmarked) [CBLA, cannabicyclolic acid] |  | >200 | 
CCCCCc1cc(O)c2c(c1)OC(C)(C)c1ccc(C)cc1-2 [CBN, cannabinol] | > 200 | >200 | 
CCCCCc1cc2c(c(O)c1C(=O)O)-c1cc(C)ccc1C(C)(C)O2 [CBNA, cannabinolic acid] |  | >200 | 
(+)-cannabidiol [(+)-CBD] |  | >200 | 
